Consider 1 molecule from patent US10406120B2, “Methods and compositions for treating kidney disorders” (Golden Biotechnology Corporation, priority 2013, dated 2019).

The nature of experiment [1]: AcP-IgAN model: renal histopathology. The conditions noted are these: AcP-IgAN mice. The class given is in vivo, B cell-deficient mice. The protocol:
(§1) B cell-deficient mice (B6.129S2-Igh-6tm1Cgn/J) were obtained from the Academia Sinica (Professor John T. Kung, Institute of Molecular Biology), and maintained at the animal center of the National Defense Medical Center, Taipei, Taiwan. AcP-IgAN was induced in the mice by daily injection of purified IgA anti-phosphorylcholine antibodies and pneumococcal C-polysaccharide (PnC) as described previously (Chao, et al., Kidney Int. 70:283-297; 2006). All animal experiments were performed with the approval of the Institutional Animal Care and Use Committee of The National Defense Medical Center, Taiwan, and were consistent with the NIH Guide for the Care and Use of Laboratory Animals.
For renal histopathology, the tissues were fixed in 10% buffered formalin and embedded in paraffin, and then sections (4 μm) were prepared and stained with hematoxylin and eosin (H&E). The proportion of glomeruli showing proliferation, crescent formation, sclerosis, or peri-glomerular inflammation was counted in 50 randomly sampled glomeruli by light microscopy at the magnification of 400×.

The subject of experiment [2] is splenocytes. The experiment in a line: AcP-IgAN model: T cell proliferation analysis (thymidine uptake). The class given is in vivo, B cell-deficient mice. The protocol:
as §1
Splenocytes from the mice were prepared as described as above, then were cultured in triplicate in wells (5×10^5 cells in 200 μl/well) in 96-well flat-bottomed microtiter plates previously coated overnight at 4° C. with 0.25 μg/ml of anti-mouse CD3 antibody (BD Biosciences). After 48 hr, the cultures were pulsed with 1 μCi of 3H-methyl thymidine (Amersham Pharmacia Biotech, NJ), harvested 16 hr later, and the incorporated 3H-methyl thymidine measured using a TopCount (Packard, PerkinElmer, MA).

Experiment [3] concerns Col-IV. The experiment in a line: AcP-IgAN model: renal Col-IV mRNA and protein. The class given is in vivo, B cell-deficient mice. The conditions noted are these: AcP-IgAN mice. The protocol:
as §1
For IHC, formalin fixed and paraffin embedded tissue sections or frozen sections were incubated with against IL-6 (R&D Systems, MN), MCP-1 (Santa Cruz, Calif.), F4/80 (monocytes/macrophages; Serotec, N.C.), collagen IV (Southern Biotech, AL), TGF-β1 (Santa Cruz), phopsho-NFκB p65 (Cell Signaling, MA), CD3 (pan-T cell; Serotec), CD4 (T helper cell; BioLegend, CA), CD8 (cytotoxic T cell), CD11b (macrophages/neutrophils), or CD11c (dendritic cells) (BD Biosciences, CA) antibodies. The FITC-conjugated, Alexa Fluor 488-conjugated (Invitrogen, CA) or horseradish peroxidase (HRP) conjugated secondary antibodies (DAKO, Denmark) were then applied to the sections. Hematoxylin or 4′,6-diamidino-2-phenylindole (DAKO) was used in the counter staining for nuclei.
(§2) Total cortical kidney RNA was extracted with TriZOL reagents (Invitrogen) from cortical tissue of the kidney. For first-strand cDNA synthesis, 1.5 μg of total RNA was used in a single-round reverse transcriptase reaction. The reaction mixture consisted of 0.9 μl of Oligo (dT) 12 to 18 primer, 1.0 mM deoxyribonucleotide triphosphate (dNTP), 1 μl first strand buffer, 0.4 mM dithiothreitol, 80 U of RNaseout recombinant ribonuclease inhibitor, and 300 U of superscript II RNase H (Invitrogen). Real-time PCR was performed on an ABI Prism 7700 Sequence Detection System (Applied Biosystems, CA). […]

The test system of experiment [4] is IL-6. In words: FSGS model: renal IL-6 (IHC). The class given is in vivo, BALB/c mice. The conditions noted are these: FSGS mice, vs control FSGS mice. The protocol:
Experiments described herein were performed on 8-week-old female BALB/c mice. The FSGS mice were injected intravenously with a single dose of adriamycin (0.1 mg/10 g body weight). The mice were given Compound 1 six hours before adriamycin injection by gavage daily till sacrifice. BALB/c mice intraperitoneal injected with normal saline were used as normal controls, while ASLN mice given vehicle (corn oil) by gavage were used as disease controls. Mice were killed at day 7, 14, or 21 after disease induction, and spleen, renal cortical tissue, and blood samples collected and stored appropriately until analysis. […]
For IHC, formalin-fixed and paraffin-embedded renal sections were prepared and incubated with primary antibodies against mouse Desmin (Lab Vision, CA, USA), CD3 (pan-T cell; Serotec, N.C., USA), F4/80 (monocytes/macrophages; Serotec), IL-6 (R&D Systems, MN, USA), NF-κB p65 (Cell Signaling Technology, MA, USA), collagen I, III, and IV (Southern Biotech, AL, USA), or TGF-β1 (Santa Cruz Biotechnology, CA, USA), biotinylated second antibodies (Dako, Glostrup, Denmark), and avidin-biotin-peroxidase complex (Dako). Semi-quantitative evaluation of staining was performed.

In experiment [5] the test system is NLRP3. In words: AcP-IgAN model: renal NLRP3 mRNA and protein. It counts as in vivo, B cell-deficient mice. Conditions: AcP-IgAN mice. The protocol:
as §1
Total cortical kidney RNA was extracted with TriZOL reagents (Invitrogen) from cortical tissue of the kidney. For first-strand cDNA synthesis, 1.5 μg of total RNA was used in a single-round reverse transcriptase reaction. The reaction mixture consisted of 0.9 μl of Oligo (dT) 12 to 18 primer, 1.0 mM deoxyribonucleotide triphosphate (dNTP), 1 μl first strand buffer, 0.4 mM dithiothreitol, 80 U of RNaseout recombinant ribonuclease inhibitor, and 300 U of superscript II RNase H (Invitrogen). Real-time PCR was performed on an ABI Prism 7700 Sequence Detection System (Applied Biosystems, CA). All of the probes and primers were Assays-on-Demand Gene expression products (Applied Biosystems). Real-time PCR reactions were using 10 μl of cDNA, 12.5 μl of TaqMan Universal PCR Master Mix (Applied Biosystems), and 1.25 μl of the specific probe/primer mixed in a total volume of 25 μl. The thermal cycler conditions were as follows: 2 min at 50° C., 10 min at 95° C., 40 cycles of denaturation (15 s at 95° C.), and combined annealing/extension (1 min at 60° C.).
Each protein sample was run on a 10% SDS-PAGE gel. […] The membrane-bound antibody detected was incubated with chemiluminescent reagent plus (PerkinElmer Life Sciences, MA) and captured on x-ray film.

The test system of experiment [6] is IL-18. In words: AcP-IgAN model: renal IL-18 mRNA and protein. It counts as in vivo, B cell-deficient mice. The conditions noted are these: AcP-IgAN mice. The protocol: as §1
as §2, with “CA). All of the probes and primers were Assays-on-Demand Gene expression products (Applied Biosystems).” for “CA).”

[7] abbreviates: day 28, vs control AcP-IgAN mice.

Regarding `COC1=C(OC)[C@H](O)[C@H](C/C=C(\C)CC/C=C(\C)CCC=C(C)C)[C@@H](C)C1=O` [Compound 1, Antroquinonol], the renal histopathology result in experiment [1] (day 3, vs control AcP-IgAN mice) was “significantly inhibited”. Further, the “renal lesions (proliferation, crescents, sclerosis, peri-glomerular leukocyte infiltration, tubular atrophy; except glomerular immune deposits)” value in experiment [1] (setting [7]) was “substantially inhibited”. Moreover, the “proliferation of CD3^+ T cell in splenocytes (thymidine uptake)” value in experiment [2] (AcP-IgAN mice, day 28) is reported as “near baseline levels of proliferation”. In addition, in experiment [2] (day 3, worded as control AcP-IgAN mice relative to AcP-IgAN+Antroq mice), the “proliferation of CD3^+ T cell in splenocytes (thymidine uptake)” value was “greatly increased proliferation of CD3^+ T cell in splenocytes compared to that of AcP-IgAN+Antroq mice”. In addition, in experiment [3] (day 3), the “renal mRNA levels of Col-IV” value was “basal mRNA levels”. In experiment [3] (setting [7]), the “Col-IV protein levels in kidney (IHC)” value is “substantially inhibited” and the “renal mRNA expression of Col-IV” value is on record as “greatly inhibited”. In addition, in experiment [4], the “renal protein expression levels of IL-6 (IHC)” value is reported as “significantly reduced”. In experiment [5] (both day 3 and day 28, vs AcP-IgAN mice), the “protein levels of NLRP3 in the kidney (increase)” value is on record as “significantly inhibited”. For the same molecule, the “renal NLRP3 mRNA expression levels” value in experiment [5] (day 3) is reported as “no effects”. For the same molecule, the “renal mRNA levels of NLRP3” value in experiment [5] (setting [7]) is “substantially reduced”. The “renal mRNA expression levels of IL-18 (elevation)” value in experiment [6] (day 3 until day 28, real-time PCR) is reported as “greatly inhibited”. Besides, the “renal IL-18 protein production” value in experiment [6] (only at day 28) is recorded as “significantly inhibited”.
